In patent publication US4782081A, “Compounds and methods useful for the synthesis of thromboxane A2” (priority 1986, dated 1988):
Several values for one entry are separate records, joined by “and”; a condition that tells them apart may be missing. Equal values may be shown once. Entries after “also recorded” stand apart in the source; their conditions may differ. Where a name gives a salt, the structure may show the parent alone.

Columns and labels:
[1] = chemical stability and storage stability; format: physicochemical
Method: The salts of TXA2 were stable for more than one week when stored at -20 C. either as isolated solids or in basic methanol or tetrahydrofuran solution.
To a vile containing 1 mg (0.003 mmol) H1 in 0.050 ml (d4 -)methanol was immediately added 0.0025 ml of a 0.12M solution of NaOH(D) in (D)H2 O under nitrogen. […] Such solutions were diluted and used for biological testing and could be stored for at least a week at -20° C. without significant loss in biological activity.
(§1) TXA2 S was also prepared by saponifiction of H2 (X=H) with Me3 SiOK (10) in tetrahydrofuran and isolated as an amorphous solid by solvent evaporation.

[2] = tested on: rabbit celiac arteries; experiment: response of rabbit celiac arteries; format: cell-based
Method: (§2) On most tissues 2-3 ng of TXA2 S was the threshold dose for contraction, generating more than 2 g of tension with rabbit aorta and 4 g of tension with bovine coronary arteries.

[3] = tested on: vascular tissue (rabbit aorta, pulmonary, mesenteric, celiac arteries and bovine coronary arteries); experiment: contraction of Krebs superfused vascular tissue; format: cell-based; conditions: for contraction of vascular tissue / constriction of vascular tissue versus natural TXA2: rabbit aorta, pulmonary; for contraction of vascular tissue: mesenteric, celiac arteries and bovine coronary arteries; for constriction of vascular tissue versus natural TXA2: mesenteric and celiac arteries
Method: as §2

[4] = tested on: vascular tissue (rabbit aorta, pulmonary, mesenteric, celiac arteries and bovine coronary arteries); conditions: generated by platelets or a partially purified platelet enzyme; cited from earlier work
[5] = tested on: rabbit mesenteric arteries; experiment: response of rabbit mesenteric arteries; format: cell-based
Method: as §2

[6] = 37° C., pH 7.4; refs (1,3); cited from earlier work
[7] = indirect methods; refs (14), (15); listed as biologically generated material; cited from earlier work
[8] = tested on: platelets; experiment: inhibition of TXA2 S induced platelet aggregation; format: cell-based, human
[9] = tested on: rabbit celiac arteries; conditions: ref (19); cited from earlier work
[10] = tested on: rabbit mesenteric arteries; conditions: ref (19); cited from earlier work
[11] = biological activity (biological properties of TXA2) in a variety of assays
Method: as §1

[12] = in vitro; format: in vitro ADME; conditions: human, plasma
Description: (§3) TXA2 S at concentrations of 16-100 nanograms/ml caused a concentration-dependent aggregation of human platelet rich plasma (PRP). Irreversible aggregation occurred with 50-100 nanograms TXA2 S/ml for all cases examined. […] These comparative potencies concur with published data. […] The aggregatory effects of TXA2 S were confined to platelets.

[13] = tested on: human platelet rich plasma (PRP); experiment: aggregation of human platelet rich plasma (PRP); format: cell-based
Description: as §3

[14] = tested on: rabbit aorta; experiment: contraction of Krebs superfused rabbit aorta; format: cell-based; conditions: threshold dose 2-3 ng
Method: as §2

[15] = tested on: bovine coronary arteries; experiment: contraction of Krebs superfused bovine coronary arteries; format: cell-based; conditions: threshold dose 2-3 ng
Method: as §2

[16] = tested on: leukotriene B4; experiment: stimulation of leukotriene B4 formation; format: cell-based, human; conditions: 2 ug/ml
[17] = half-life in Krebs solution at 37° C. (bioassay on vascular tissue); format: physicochemical; conditions: leading to TXB2
Method: Radioimmunoassay determinations of hydrolyzed TXA2 yielded values of 84±21, 60±16, 39±11, and 25±8 picograms TXB2 (mean±S.D at 95% confidence, n=3) which correspond with predicted values of 125, 62, 31, and 15 picograms, respectively. The half-life of TXA2 S at 37° C. in Krebs solution measured by bioassay on vascular tissue was 30 seconds which compares very closely with previously reported half-lives for biologically generated material. (1, 12)

[18] = tested on: human neutrophils; experiment: aggregation of human neutrophils; format: cell-based
[19] = tested on: thromboxane synthetase or cyclooxygenase

SMILES: CCCCC[C@H](O)/C=C/[C@H]1O[C@H]2C[C@H](O2)[C@@H]1C/C=C\CCCC(=O)O [TXA2, thromboxane A2]
- hydrolysis to TXB2 ([1]; aqueous high salt, neutral pH buffers): rapidly hydrolyzed to TXB2
- stability at high pH ([1]; high pH): appreciably enhanced at high pH
- response of rabbit celiac arteries [2]: only constriction
- contraction of vascular tissue [3]: contracted all vascular tissue tested
- vascular contracting activity [4]: potent vaxcular contracting activity
- response of rabbit mesenteric arteries [5]: only constriction
- T1/2 in aqueous Krebs medium [6]: 32 s
- half-life in plasma, biologically generated material [7]: 3 minutes and 5-6 minutes

SMILES: CCCCCCC=CC1C2CC(N=N2)C1CC=CCCCC(=O)O (stereo not drawn) [Compound U-51605, 9,11-diazo-prosta-5,13-dienoic acid]
- TXA2-induced aggregation ([8]; inhibitor at 1-3 ug/ml): inhibited TXA2 -induced aggregation in a concentration-dependent manner

SMILES: CCCCC[C@H](O)/C=C/[C@@H]1[C@@H](C/C=C\CCCC(=O)O)[C@@H]2C[C@H]1OO2 [PGH2]
- response of rabbit celiac arteries to PGH2 [9]: small, short-lived contraction, followed by larger, longer lasting relaxation
- response of rabbit mesenteric arteries to PGH2 [10]: small, short-lived contraction, followed by larger, longer lasting relaxation

SMILES: CCCCCC(O)C=CC1OC2CC(O2)C1CC=CCCCC(=O)O (stereo not drawn) [free acid]
- stability of free acid in aprotic solvents ([1]; deuterochloroform, elimination to the enol ether): underwent elimination to the corresponding enol ether over the course of several hours

SMILES: CCCCC[C@H](O)/C=C/[C@H]1O[C@H]2C[C@H](O2)[C@@H]1C/C=C\CCCC(=O)O [A, Thromboxane A2]
- biological assays versus platelet-derived TXA2 [11]: indistinguishable from platelet-derived TXA2

SMILES: CCCCCCC=CC1C2CC(NO2)C1CC=CCCCC(=O)O (stereo not drawn) [Compound U-54701, 9,11-iminoepoxy-prosta-5,13-dienoic acid]
- platelet aggregation induced by TXA2 S ([8]; inhibitor at 5-15 ug/ml): no effect

SMILES: CCCCC[C@H](O)/C=C/[C@H]1O[C@H]2C[C@H](O2)[C@@H]1C/C=C\CCCC(=O)O [TXA2 S, Thromboxane A2]
- half-life [12]: 234 s
- storage without significant loss in activity ([1]; -20° C., basic saponification solutions): up to a week
- stability in basic saponification solutions ([1]; basic saponification solutions): relatively stable
- stability in neutral or acidic solutions ([1]; neutral or acidic solutions): rapid decomposition
- response of rabbit celiac arteries [2]: only constriction
- biological activity [11]: did exhibit biological properties
- biological activity after hydrolysis ([11]; 0.1M phosphate buffer, pH 7.4): eliminated its biological activity
- potency versus biologically produced TXA2 ([3]; TXA2 calculated from PGH2 originally in the incubation, assuming 100% conversion): compared well with the activity of biologically produced TXA2
- contraction of vascular tissue [3]: contracted all vascular tissue tested
- concentration causing concentration-dependent aggregation of human PRP [13]: 16-100 nanograms/ml
- potency relative to PGH2 at inducing aggregation of human PRP [13]: approximately 10 times
- concentration causing irreversible aggregation ([13]; all cases examined): 50-100 nanograms/ml
- response of rabbit mesenteric arteries [5]: only constriction
- tension generated, rabbit aorta [14]: more than 2 g
- tension generated, bovine coronary arteries [15]: > 4 g
- stimulation of formation of leukotriene B4 [16]: nor did it stimulate formation of leukotriene B4
- half-life ([17]; krebs medium): 30 s
- aggregation of human neutrophils ([18]; 2 ug/ml): did not aggregate human neutrophils

SMILES: CCCCCC1C=CC2OC3CC(O3)C2CC=CCCCC(=O)O1 (stereo not drawn) [Compound H2, 1,15-Anhydro Thromboxane A2]
- biological activity [11]: did not show the biological properties of TXA2; also recorded: biologically inactive

SMILES: CCCCCC(O)C=CC1OC2CC(O2)C1CC=CCCCC(=O)O (stereo not drawn) [sodium salt of A, Thromboxane A2 Sodium]
- storage without significant loss in biological activity ([1]; -20° C., methanol/water saponification solution): at least a week
- biological activity [11]: marked activity
- constriction of vascular tissue versus natural TXA2 [3]: indistinguishable from natural TXA2
- comparative potency in aggregating human platelets versus natural TXA2 [13]: indistinguishable from natural TXA2
- resistance to inhibition by selective thromboxane synthetase or cyclooxygenase inhibitors versus natural TXA2 [19]: indistinguishable from natural TXA2
- half-life in Krebs medium/solution [17]: 30 s
- aggregation of neutrophils [18]: not neutrophils

SMILES: CCCCCC(O)C=CC1OC2CC(O2)C1CC=CCCCC(=O)O (stereo not drawn) [potassium salt of A, Thromboxane A2 Potassium]
- constriction of vascular tissue versus natural TXA2 [3]: indistinguishable from natural TXA2
- comparative potency in aggregating human platelets versus natural TXA2 [13]: indistinguishable from natural TXA2
- resistance to inhibition by selective thromboxane synthetase or cyclooxygenase inhibitors versus natural TXA2 [19]: indistinguishable from natural TXA2
- half-life in Krebs medium/solution [17]: 30 s
- aggregation of neutrophils [18]: not neutrophils
